From ChEMBL document CHEMBL1143554, “4-phenoxypiperidines: potent, conformationally restricted, non-imidazole histamine H3 antagonists” (J Med Chem, 2005)

What was measured:
Histamine H3 receptor [1] = biological target: T1, Histamine H3 receptor (Homo sapiens, UniProt Q9Y5N1); experiment: Mean functional activity against human H3 receptor; conditions: read-out: pA2 (converted)
Histamine H3 receptor [2] = biological target: T1, Histamine H3 receptor; experiment: Mean binding affinity for human H3 receptor

T1 sequence (Q9Y5N1 whole entry): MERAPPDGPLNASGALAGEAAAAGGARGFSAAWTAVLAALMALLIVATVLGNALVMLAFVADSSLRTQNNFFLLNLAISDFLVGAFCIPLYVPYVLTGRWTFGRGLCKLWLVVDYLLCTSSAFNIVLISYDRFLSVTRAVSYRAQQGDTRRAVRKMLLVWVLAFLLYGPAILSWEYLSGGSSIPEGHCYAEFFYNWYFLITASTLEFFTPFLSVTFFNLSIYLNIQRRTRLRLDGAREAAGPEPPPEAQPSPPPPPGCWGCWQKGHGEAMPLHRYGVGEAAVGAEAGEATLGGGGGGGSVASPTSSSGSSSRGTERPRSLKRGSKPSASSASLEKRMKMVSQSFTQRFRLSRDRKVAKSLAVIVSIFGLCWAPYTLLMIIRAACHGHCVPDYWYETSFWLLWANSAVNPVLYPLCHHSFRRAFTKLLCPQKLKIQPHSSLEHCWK

| SMILES | Kb (Histamine H3 receptor [1]) [nM] | Ki (Histamine H3 receptor [2]) [nM] |
| --- | --- | --- |
| CC(C)N1CCC(Oc2ccc(CN3CCN(c4ccccc4)CC3)cc2)CC1 | 1.02 | 2 |
| CC(C)N1CCC(Oc2ccc(CN3CCN(Cc4ccccc4)CC3)cc2)CC1 | 0.661 | 2 |
| CC(C)N1CCC(Oc2ccc(CNc3ccccc3)cc2)CC1 | 2.69 | 5.5 |
| CC(C)N1CCC(Oc2ccc(CN3CCC(Cc4ccccc4)CC3)cc2)CC1 | 0.813 | 1.45 |
| C[C@@H]1CCCN1CCc1cc2cc(C#N)ccc2o1 |  | 0.447 |
| N#Cc1ccc(OCCCCCN2CCCC2)cc1 |  | 19.1 |
| Cc1ccc2nc(-c3ccc(OCCCN4CCCCC4)cc3)cn2c1 | 2.04 |  |
| CC(C)N1CCC(Oc2ccc(CN3CCCN(C)CC3)cc2)CC1 | 0.324 | 1 |
| CCC(CC)N1CCN(C(=O)CCC(=O)c2ccc(Cl)cc2)CC1 |  | 0.871 |
| CC(C)N1CCC(Oc2ccc(CN3CCN(C)CC3)cc2)CC1 | 0.257 | 0.741 |
| CC(C)N1CCC(Oc2ccc(CNc3ccccn3)cc2)CC1 | 0.741 | 2.24 |
| CC(C)N1CCC(Oc2ccc(CN3CCCCCC3)cc2)CC1 | 0.174 | 1.7 |

More lines, now with the values ahead:

| Kb (Histamine H3 receptor [1]) [nM] | Ki (Histamine H3 receptor [2]) [nM] | SMILES |
| --- | --- | --- |
| 0.468 | 1.23 | CCN(CC)Cc1ccc(OC2CCN(C(C)C)CC2)cc1 |
| 1.17 | 3.02 | CC(C)N1CCC(Oc2ccc(CN(C)C)cc2)CC1 |
| 0.214 | 1.15 | CC(C)N1CCC(Oc2ccc(CN(C)CCN(C)C)cc2)CC1 |
|  | 81.3 | CCN1CCC(Oc2ccc(C#N)cc2)CC1 |
|  | 66.1 | CC(C)CN1CCC(Oc2ccc(C#N)cc2)CC1 |
|  | 107 | CCCN1CCC(Oc2ccc(C#N)cc2)CC1 |
|  | 759 | CC(CO)N1CCC(Oc2ccc(C#N)cc2)CC1 (stereo not given) |
|  | > 10000 | N#Cc1ccc(OC2CCNCC2)cc1 |
| 0.331 | 1.41 | CC(C)N1CCC(Oc2ccc(CN3CCC(O)CC3)cc2)CC1 |
|  | 32.4 | N#Cc1ccc(OC2CCN(C3CCCCC3)CC2)cc1 |
| 0.126 | 0.631 | CC(C)N1CCC(Oc2ccc(CN3CCCCC3)cc2)CC1 |
| 0.257 | 1 | CC(C)N1CCC(Oc2ccc(CN3CCC(CO)CC3)cc2)CC1 |
|  | 15.1 | CCC(C)N1CCC(Oc2ccc(C#N)cc2)CC1 (stereo not given) |
| 0.457 | 1.62 | CC(C)N1CCC(Oc2ccc(CNC3CC3)cc2)CC1 |
| 0.355 | 1.95 | CC(C)N1CCC(Oc2ccc(CN3CCCC3)cc2)CC1 |
| 0.339 | 1.48 | CCCCN(C)Cc1ccc(OC2CCN(C(C)C)CC2)cc1 |
